# In patent US12617777B2, “GPR84 antagonists and uses thereof” (Liminal BioSciences Limited, priority 2021, dated 2026):
# Biological target: T1, human GPR84 receptor (Homo sapiens, UniProt Q9NQS5)
# T1 construct: host or cells: HEK293, transient transfection
# Assay: Gαi biosensor BRET assay in HEK293 cells (antagonism of ZQ-16)
# Type: cell-based
# Settings: HEK293, single concentration 2 μM (designated A)
# Text: Background—The following assays can be used for determination of GPR84 activation in living HEK293 cells. The Gai BRET biosensor (Gagnon et al., 2018; Gales et al., 2006. Nat StructMol Biol. 13, 778-86; Saulieres et al., 2012. Nat Chem Biol. 8, 622-30) allows to directly monitor GPR84-mediated activation of Gai. The Gai biosensor consists of a Rluc8-tagged Gαi2 subunit, a GFP10-tagged Gγ2 subunit, and an untagged Gβ1. Agonist stimulation and GPR84 activation triggers a physical separation between the RLuc8-Gαi donor and the GFP10-Gγ2 acceptor, resulting in a decrease in BRET signal whose amplitude is correlated to ligand efficacy (Gales et al., 2006). Moreover, signaling functions of GPCRs are tightly regulated by endocytosis, the targeting of receptors to endosomes and their sorting to lysosomes or recycling to the plasma membrane. The early endosomes (EEs) trafficking assay (Namkung et al., 2016. Nat Commun. 7, 12178) uses Rluc8-tagged GPR84 and Renilla GFP (rGFP) attached to the FYVE domain from human endofin/zinc finger FYVE domain-containing protein 16, which binds phosphatidylinositol 3-phosphate in EEs. Agonist stimulation of GPR84-Rluc8 leads to trafficking of the receptor to EEs, and ensuing increase of the donor concentration relative to the rGFP-FYVE acceptor anchored in the same cellular compartment, and thus results in an increase in BRET signal.
# Plasmids—The cDNA clones for human GPR84 receptor, human Gai2, Gp1, and Gy2 were obtained from the cDNA Resource Center (www.cdna.org). GFP10 (F64L, S147P, S202F and H231L variant of Aequorea victoria Green Fluorescent Protein) gBlocks gene fragments (Integrated DNA Technologies, IA) and linker were inserted in frame at the N-terminus of human Gγ2. Rluc8 (A55T, C124A, S130A, K136R, A143M, M185V, M253L, and S287L variant of the Renilla renformis luciferase) gBlocks gene fragment was inserted with linkers in frame in between residues 91 and 92 of Gai2 or at the C-terminus of GPR84. The FYVE domain from human endofin (residues Q739 to K806) attached in frame at the C terminus of a humanized Renilla GFP (rGFP), were synthesized as gBlocks gene fragments.
# Bioluminescence Resonance Energy Transfer (BRET) Measurement—HEK293 cells were transfected with GPR84-Rluc8 and rGFP-FYVE for the EEs trafficking biosensor or with GPR84, Gαi2-Rluc8, GFP10-Gγ2, and Gβ1 for the Gαi biosensor. The following day, transiently transfected cells were seeded in 96-well white clear bottom microplates coated with poly-D-lysine and left in culture for 24 hours. Cells were washed once with Tyrode's buffer (140 mmol/L NaCl, 1 mmol/L CaCl2, 2.7 mmol/L KCl, 0.49 mmol/L MgCl2, 0.37 mmol/L NaH2PO4, 5.6 mmol/L glucose, 12 mmol/L NaHCO3, and 25 mmol/L HEPES, pH 7.5) before performing assays in Tyrode's buffer. Test compounds were incubated with cells for 5 (Gαi) or 15 (EEs) minutes at 37° C. before addition of 200 nmol/L of the GPR84 agonist ZQ-16 (2-(Hexylthio)-6-hydroxy-4(3H)-pyrimidinone) for 5 minutes at room temperature (Gαi) or 30 minutes at 37° C. (EEs). The Rluc8 substrate coelenterazine 400A (Prolume, Lakeside, AZ) was added at a final concentration of 5 μmol/L and BRET readings were collected using an Infinite M1000 microplate reader (Tecan, Morrisville, NC). BRET^2 readings between Rluc8 and GFP10 or rGFP were collected by sequential integration of the signals detected in the 370 to 450 nm (Rluc8) and 510 to 540 nm (GFP10, rGFP) windows. The BRET signal was calculated as the ratio of light emitted by acceptor (GFP10, rGFP) over the light emitted by donor (Rluc8). The values were corrected to net BRET by subtracting the background BRET signal obtained in cells transfected with Rluc8 constructs alone. Ligand-promoted net BRET values were calculated by subtracting vehicle-induced net BRET from ligand-induced net BRET.
# T1 sequence (Q9NQS5 whole entry): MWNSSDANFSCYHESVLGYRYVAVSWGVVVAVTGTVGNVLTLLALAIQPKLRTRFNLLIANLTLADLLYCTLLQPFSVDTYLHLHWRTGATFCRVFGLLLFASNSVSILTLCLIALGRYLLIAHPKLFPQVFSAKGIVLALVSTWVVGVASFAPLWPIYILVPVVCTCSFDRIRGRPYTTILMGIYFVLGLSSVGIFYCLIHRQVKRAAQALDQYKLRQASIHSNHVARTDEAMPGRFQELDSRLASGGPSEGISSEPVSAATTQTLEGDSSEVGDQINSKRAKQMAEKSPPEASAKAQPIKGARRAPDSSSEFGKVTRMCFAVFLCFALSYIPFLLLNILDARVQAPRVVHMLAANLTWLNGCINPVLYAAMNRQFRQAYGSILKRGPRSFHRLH
row,SMILES,inhibition at 2 µM [%]
1,CCc1cc(C#CCN(C)C)ccc1-c1cn(CC2OCC(C)(C)CO2)nn1 [Compound I-852],> 75
2,Cc1cc(N2CC(C)(CO)C2)c(F)cc1-c1cn(C[C@@H]2CCCCO2)nn1 [Compound I-805],> 75
3,Cc1cccc(-c2cn(CC#Cc3cnc(-c4cn(CC5CCCCO5)nn4)c(C)c3)nn2)c1 (stereo not shown) [Compound I-718],> 75
4,CCN(CC)c1cc(N2CC(C)(CO)C2)c(F)cc1-c1cn(CC2OCC3(CC3)CO2)nn1 [Compound I-801],> 75
5,FC(F)(F)Cc1cc(N2CCN(Cc3ccccn3)CC2)ccc1-c1cn(C[C@H]2CCCCO2)nn1 [Compound I-746],> 75
6,CC1(C)COC(Cn2cc(-c3ncc(C#CCN4CC(C)(C)C4)cc3OCC(F)(F)F)nn2)OC1 [Compound I-722],> 75
7,Cc1cc(C#CCn2cc(-c3ccc(N(C)C)cc3)nn2)cnc1-c1cn(CC2CCCCO2)nn1 (stereo not shown) [Compound I-712],> 75
8,Cc1cc(C#CC2CC2)ccc1-c1cn(CC23CCC(CC2)CO3)nn1 [Compound I-509],≤ 25

# Same assay, conditions: HEK293, single concentration 10 μM (designated F)
row,SMILES,inhibition at 10 µM [%]
1,Cc1cc(C#CC2CC(F)(F)C2)cnc1-c1cn(CC2CCCCO2)nn1 (stereo not shown) [Compound I-648],> 75
2,Cc1cc(C#CC2CC2)ccc1-c1cn(CC2CNCCO2)nn1 (stereo not shown) [Compound I-180],≤ 25
3,Cc1ccc(N2CC(C)(C)C2)cc1Cc1cn(CC2CCCCO2)nn1 (stereo not shown) [Compound I-443],≤ 25
4,Cc1cc(NS(C)(=O)=O)ccc1-c1cn(CC2CCCCO2)nn1 (stereo not shown) [Compound I-130],≤ 25
5,CC(C)c1cc(C#CC2CC2)ccc1-c1cn(CC2CCOCC2)nn1 [Compound I-212],≤ 25
6,Cc1cc(F)c(C#CC2CC2)cc1-c1cn(CC2CCCCO2)nn1 (stereo not shown) [Compound I-249],50 to 75
7,Cc1cc(N2CC(C)(C)C2)c(Cl)cc1-c1cn(C[C@H]2CCCCO2)nn1 [Compound I-421],> 75
8,CC(C)Oc1cc(N2CC(C)(C)C2)cnc1-c1cn(CC2OCC(C)(C)CO2)nn1 [Compound I-664],> 75
9,Cc1cc(N2CCCC(N(C)Cc3ccccc3)C2)ccc1-c1cn(CC2CCCCO2)nn1 (stereo not shown) [Compound I-171],> 75
10,CN(c1cccc(C#CC2CC2)c1)c1cn(CC2OCC(C)(C)CO2)nn1 [Compound I-824],≤ 25
11,CN(C)c1cc(N2CC(C)(CO)C2)ccc1-c1cn(CC2OCC3(CCC3)O2)nn1 (stereo not shown) [Compound I-728],> 75
12,Cc1cc(N2CC(C)(C)C2)ccc1-c1cn(CC2CCCCO2)nn1 (stereo not shown) [Compound I-864],25 to 50
13,Cc1cc(CN2CC(=O)NC2=O)ccc1-c1cn(CC2CCCCO2)nn1 (stereo not shown) [Compound I-558],≤ 25
14,Cc1cc(C#CC2CC2)ccc1-c1cn(C[C@H]2COC(C)(C)O2)nn1 [Compound I-222],50 to 75
15,Cc1cc(N2CC(C)(CO)C2)ccc1-c1cn(CC2OCC(C)(C)O2)nn1 (stereo not shown) [Compound I-626],25 to 50
16,CC(C)(O)c1cc(C#CC2CC2)ccc1-c1cn(CC2CCCCO2)nn1 (stereo not shown) [Compound I-229],≤ 25
17,Cc1ccc(C#CCNc2ccccc2)cc1-c1cn(CC2CCCCO2)nn1 (stereo not shown) [Compound I-178],≤ 25
18,Cc1cc(C#CC2CC2)ccc1-c1nn(C[C@H]2CCCCO2)nc1C [Compound I-345],≤ 25
19,Cc1cc(N2CC3(CCNC3)C2)ccc1-c1cn(CC2CCCCO2)nn1 (stereo not shown) [Compound I-167],≤ 25
20,"Cc1cccc(C#Cc2cn(CC3OCC(C)(C)CO3)nn2)c1 [Compound I-790, 1-((5,5-dimethyl-1,3-dioxan-2-yl)methyl)-4-(m-tolylethynyl)-1H-1,2,3-triazole]",≤ 25
21,CN(C)c1cc(N2CC(C)(CO)C2)ccc1-c1cn(CC2CC3(CC3)CO2)nn1 (stereo not shown) [Compound I-707],> 75

row,SMILES,inhibition at 10 µM [%]
1,Cc1cc(N2CCN(Cc3ccccn3)C(=O)C2)ccc1-c1cn(CC2OCC(C)(C)CO2)nn1 [Compound I-752],25 to 50
2,Cc1cc(N2CC(C(C)O)C2)ccc1-c1cn(CC2CCCCO2)nn1 (stereo not shown) [Compound I-508],50 to 75
3,Cc1ccc(C(C)(C)O)cc1N(C)c1cn(CC2OCC(C)(C)CO2)nn1 [Compound I-830],50 to 75
4,Cc1cc(N2CCN(Cc3ccccn3)CC2)ccc1-c1cn(CC2OCCCO2)nn1 [Compound I-532],25 to 50
5,c1ccc(COc2ccc3c(c2)CCc2cnn(CC4CCCCO4)c2-3)cc1 (stereo not shown) [Compound I-331],≤ 25
6,COc1cccc(N(C)c2cn(CC3OCC(C)(C)CO3)nn2)c1 [Compound I-812],≤ 25
7,Cc1ccc(-c2cccc(-c3nnn(CC4CCCCO4)c3C)c2)cn1 (stereo not shown) [Compound I-95],≤ 25
8,Cc1cc(C#CC2CC2)ccc1-c1cn(CCOC(C)(C)C)nn1 [Compound I-98],≤ 25
9,Cc1cc(N2CC3(CCN(Cc4ccccc4)CC3)C2)ccc1-c1cn(CC2CCCCO2)nn1 (stereo not shown) [Compound I-156],50 to 75
10,CCc1cc(C#CCNC(=O)OC(C)C)ccc1-c1cn(CC2CCCCO2)nn1 (stereo not shown) [Compound I-598],> 75
11,Cc1cc(C#CC2(O)CC2)ccc1-c1cn(CC2CCCCO2)nn1 (stereo not shown) [Compound I-215],50 to 75
12,Cc1cc(C#CC2CC2)ccc1-c1cn(CC(O)CO)nn1 (stereo not shown) [Compound I-224],25 to 50
13,CC1(CO)CN(c2cnc(-c3cn(CC4OCC5(CCC5)O4)nn3)c(OCC(F)(F)F)c2)C1 (stereo not shown) [Compound I-816],> 75
14,CN(c1cccc(C#N)c1)c1cn(CC2OCC(C)(C)CO2)nn1 [Compound I-802],> 75
15,Cc1noc(COc2ccc(-c3cn(CC4CCCCO4)nn3)c(C)c2)n1 (stereo not shown) [Compound I-469],≤ 25
16,Cc1cc(N2CCC3(CC2)CN(C)C3)ccc1-c1cn(CC2CCCCO2)nn1 (stereo not shown) [Compound I-172],≤ 25
17,COCc1cc(C#CC2CC2)ccc1-c1cn(CC2CCCCO2)nn1 (stereo not shown) [Compound I-206],50 to 75
18,"CC1(C)COC(Cn2cc(Oc3ccccc3)nn2)OC1 [Compound I-743, 1-((5,5-dimethyl-1,3-dioxan-2-yl)methyl)-4-phenoxy-1H-1,2,3-triazole]",≤ 25
19,COCC#Cc1cnc(-c2cn(CC3OCC(C)(C)CO3)cn2)c(OC2CC2)c1 [Compound I-848],≤ 25
20,C(#CC1CC1)c1cccc(Cc2cn(CC3CCCCO3)nn2)c1 (stereo not shown) [Compound I-301],50 to 75
21,C(#CC1CC1)c1ccc2c(c1)CCc1nnn(CC3CCCCO3)c1-2 (stereo not shown) [Compound I-305],≤ 25

# Same assay, conditions: HEK293, single concentration 25 μM (designated I)
row,SMILES,inhibition at 25 µM [%]
1,Cc1c(-c2ccc(C#CC3CC3)cc2)nnn1C[C@H]1CCCCO1 [Compound I-29],50 to 75
2,C(#CC1CC1)c1cccc(-c2cnn(CC3CCCCO3)c2)c1 (stereo not shown) [Compound I-320],≤ 25
3,C(#CC1CC1)c1ccc(-c2cn(C[C@H]3COc4ccccc4O3)nn2)cc1 [Compound I-23],≤ 25
4,C(#CC1CC1)c1ccc(-n2cc(CC3CCCO3)nn2)cc1 (stereo not shown) [Compound I-295],≤ 25

# Same assay, conditions: HEK293 cells, antagonism of 200 nmol/L ZQ-16
row,SMILES,IC50 [nM]
1,CC(C)Oc1cc(N2CC(C)(C)C2)cnc1-c1cn(CC2OCC(C)(C)CO2)nn1 [Compound I-664],≤ 300
2,Cc1cc(N2CCCC(N(C)Cc3ccccc3)C2)ccc1-c1cn(CC2CCCCO2)nn1 (stereo not shown) [Compound I-171],1000 to 3000
3,Cc1cc(N2CC(C)(C)C2)ccc1-c1cn(CC2CCCCO2)nn1 (stereo not shown) [Compound I-864],300 to 1000
4,CN(C)c1cc(N2CC(C)(CO)C2)ccc1-c1cn(CC2CC3(CC3)CO2)nn1 (stereo not shown) [Compound I-707],≤ 300
5,Cc1cccc(-c2cn(CC#Cc3cnc(-c4cn(CC5CCCCO5)nn4)c(C)c3)nn2)c1 (stereo not shown) [Compound I-718],300 to 1000
6,CCN(CC)c1cc(N2CC(C)(CO)C2)c(F)cc1-c1cn(CC2OCC3(CC3)CO2)nn1 [Compound I-801],≤ 300
7,FC(F)(F)Cc1cc(N2CCN(Cc3ccccn3)CC2)ccc1-c1cn(C[C@H]2CCCCO2)nn1 [Compound I-746],≤ 300
8,CCc1cc(C#CCNC(=O)OC(C)C)ccc1-c1cn(CC2CCCCO2)nn1 (stereo not shown) [Compound I-598],1000 to 3000
9,CC1(C)COC(Cn2cc(-c3ncc(C#CCN4CC(C)(C)C4)cc3OCC(F)(F)F)nn2)OC1 [Compound I-722],≤ 300
10,Cc1cc(C#CCn2cc(-c3ccc(N(C)C)cc3)nn2)cnc1-c1cn(CC2CCCCO2)nn1 (stereo not shown) [Compound I-712],≤ 300
